Series [1] relates to A. baumannii biofilm formation. Kind of series: static biofilm assay, crystal violet staining and optical density. The note with it: for IC50: Acinetobacter baumannii, read-out: IC50, inhibition of biofilm formation; for effect on biofilm formation: apo form. Type of series: cell-based, Acinetobacter baumannii ATCC 17978. An excerpt: In an effort to discover new antibiotics, a marine microbial-derived NPE library was screened to identify biofilm inhibitors in A. baumannii. Natural products accounts for the majority of currently marketed drugs,^10 and the marine environment represents a potential new source of unique chemical entities.^11 A crystal violet based high throughput assay was used to query against a library of 9,831 marine microbial derived NPEs in order to identify the extracts inhibiting biofilm formation as primary screen. The active extracts obtained in primary high-throughput screening were further prioritized by setting the inhibition threshold to 50% followed by a dose response assay, yielding 31 active NPEs.
Primarily, the static biofilm assay using 1-3 was conducted using crystal violet staining followed by optical density measurements (FIG. 3). […] However, loss of inhibition of biofilm over time can be directly attributed to the metal-complexed cahuitamycins.
A static biofilm assay was developed from a previously reported method.^10 The biofilm assay measures the adhesion of bacteria to the surface of polystyrene 384 well microtiter plates. Adherent cells are detected by staining with Crystal Violet and subsequent washing to remove nonadherent planktonic cells. Inhibitors of biofilm formation prevent the bacteria from adhering to the surface of the microtiter plate and reduce the amount of Crystal Violet retained after washing. Assay quantification was performed by OD600 absorbance measurement of the Crystal Violet stained biofilm. The assay was optimized for plate surface treatment, time, temperature, media, media concentration, Crystal Violet concentration, wash method, inhibitor sensitivity, and culture inoculum preparation.
The A. baumannii test strain (ATCC 17978) was maintained as a frozen stock at −80° C. in 20% glycerol. On the morning of the assay, 5 ml of Mueller Hinton II cation adjusted media (Becton Dickinson cat. 212322) was inoculated and grown at 37° C., 180 rpm shaking for 4-6 h. The culture was then diluted 1:50 and incubated an additional 2 h. The resulting cells were washed four times by centrifugation and resuspension of the pellet in media was performed to remove any metabolites or cell signaling factors. The assay inoculum was prepared by diluting the cells to 0.008 OD600 in 10% Mueller Hinton II cation adjusted media (diluted in 18 ohm deionized water). The assay plates (Corning cat. 3680, 384 well non-treated polystyrene) were prepared by dispensing 20 μl of 10% Mueller Hinton II cation adjusted media into columns 1-22 using a Multidrop Combi dispenser (ThermoFisher). The natural product extract samples were added as 0.2 μl of 15 mg/ml stocks in DMSO using a Biomek FX high density pintool (Beckman Coulter). Column 1 and 2 contained DMSO without natural product extracts and served as the negative control. The positive control was added to column 23 and 24 as 20 μl of 40 μM Baicalein (Sigma-Aldrich cat. 11712). The bacterial cells were added to the entire plate in 20 μl of the prepared inoculum using a Multidrop Combi dispenser (ThermoFisher). The resulting assay contained 40 μl of 10% Mueller Hinton II cation adjusted media with 0.004 OD600 bacterial cells, 0.5% DMSO, and 75 μg/ml natural product extract. The assay plates were incubated at 30° C. for 20 h, stationary, in a humidified incubator. The biofilm was stained by adding 10 μl of filtered 1% Crystal Violet and incubating for 30 minutes at room temperature. Excess Crystal Violet and nonadherent planktonic cells were removed by washing three times with 150 μl of PBS using an ELX405 plate washer (Biotek). The wash program used a low velocity dispense rate and an aspiration height of 3.8 mm; about 10 μl of PBS remained in the well after washing. The Crystal Violet stained biofilm was solubilized by the addition of 50 μl of 100% ethanol and allowed to develop overnight. Quantification was performed by measuring the OD600 absorbance using a Pherastar plate reader (BMG). […]

For series [2] the following is noted: reference value used for the calculation; cited from earlier work.
Series [3] deals with A. baumannii ATCC 17978 biofilm. The series can be described thus: flow cell biofilm assay. The format is cell-based, Acinetobacter baumannii ATCC 17978. The conditions noted are these: 7.5 μg/ml in flow media. The procedure:
(§1) Next, the specific stage of inhibition during biofilm formation was probed as well as the extent of inhibition through a flow cell assay. […] In addition, confocal microscope imaging analysis of the A. baumanii biofilm was conducted. In this assay, the biofilm was developed on a glass plate and left untreated as a control or treated with only 240 nM of 1 and 3. After treatment with STYO® 9 stain and propidium iodide (PI) the biofilm structure was observed.
Biofilms were formed by A. baumannii ATCC 17978 in flow chambers at room temperature. Images were taken at 1 h, 6 h and 24 h (by using a 60× lens) after inoculation. A flow cell biofilm was achieved by using a flow cell chamber (ACCFL0001, Life Science Incorporated, Greensboro, N.C.). Briefly, overnight cultures of A. baumannii ATCC 17978 grown in MHII broth at 37° C. were diluted 100 fold with fresh MHII broth. 1 ml of dilution was injected into a flow cell chamber and allowed to settle one hour for attaching of bacteria followed by initiation media flow. Flow media was 10% MHII broth (control), or 10% MHII broth with 7.5 μg/ml of desferoxamine, or MHII broth with 7.5 μg/ml of cahuitamycins A. The flow rate was 4 ml/hr. Micrographs of the biofilm were acquired at 1 h, 6 h and 24 h by using an Olympus IX70 microscope with 60× lens

The nature of series [4]: competition titrations with EDTA to determine iron-binding affinity (pFeIII). The format is physicochemical. The note with it: competition titration of Fe-cahuitamycin complex with EDTA, Hepes buffer pH 7.4, UV-vis; three individual titrations.
Description: Determination of pFe^III for cahuitamycins was carried out as reported by Abergel et al. J. Am. […] Briefly, purified Fe-cahuitamycins, prepared as described above, was dissolved in Hepes buffer (10 mM Hepes, 0.1 M KCl, pH 7.4) and five different concentration ranges of ETDA were added from EDTA stock solutions also prepared in HEPES buffer. Each reaction consisted of a total volume of 0.25 mL, a final concentration of 0.1 mM Fe-cahuitamycins and a range of 5-fold-8000-fold EDTA (relative to Fe-cahuitamycins) in Hepes buffer. The reaction was allowed to equilibrate at room temperature for at least 24 h, and UV-visible spectra were subsequently recorded. The composite spectra contain contributions from both Fe-EDTA and Fe-cahuitamycins. The ε of both species as a function of λ, were determined in Hepes buffer and used to deconvolute the spectra. The contribution of Fe-cahuitamycins was subtracted from the composite spectra using the 435 nm absorption band and the ε of both Fe-cahuitamycins and Fe-EDTA were used to quantify the proportion of each species in solution. Concentrations of apo-EDTA and apo-cahuitamycins were calculated by subtracting [Fe-EDTA] (or [Fe-cahuitamycins]) from total initial EDTA (or Fe cahuitamycins). The log [EDTA]/[cahuitamycins] was plotted against log [Fe-EDTA]/[Fe-cahuitamycins] and the data were fit to the following equation, which has been derived by Abergel et al., J. Am.
In another series the test system is A. baumannii growth. Kind of series: inhibition of A. baumannii growth. Type of series: cell-based, Acinetobacter baumannii. The note with it: for effect on bacterial growth: A. baumannii, apo form.
A further series deals with A. baumanii biofilm. The series can be described thus: confocal microscope imaging of biofilm on glass plate (SYTO 9 / propidium iodide). Type of series: cell-based, Acinetobacter baumannii. The note with it: glass plate treated with 240 nM. The method, then:
as §1

Where [5] appears, read: static biofilm assay, A. baumannii.
[6] abbreviates: compound tested in iron-complexed form.

Where two headings read alike, the source gives them in different places.

Broadly, the IC50 is the midpoint of a concentration-inhibition curve. As to `Cc1ccc(O)c(C2=N[C@H](C(=O)N[C@@H](CO)C(=O)N[C@H](CCCN(O)C=O)C(=O)N3NCCC[C@@H]3C(=O)NCCC(=O)O)CO2)c1` [compound 4, Cahuitamycin D], the IC50 in series [1] (setting [5]) is 8.4 µM. Also, the “potency as biofilm inhibitor compared to 3 (cahuitamycin C)” value was “almost twice the potency” in series [1] (static biofilm assay) and “twice as active” in series [1] (static biofilm assay, listed as cahuitamycin analog D).
As to `O=C(O)CN(CCN(CC(=O)O)CC(=O)O)CC(=O)O` [EDTA], the “pFe^III (known stability constants for EDTA)” value in series [2] is listed as 23.42.
Turning to `O=CN(O)CCC[C@@H](NC(=O)[C@H](CO)NC(=O)[C@H](CO)NC(=O)c1ccccc1O)C(=O)N[C@H](CCCNO)C(=O)NCCC(=O)O` [compound 5, Cahuitamycin E], the IC50 in series [1] was 10.5 µM.
Consider `CC(=O)N(O)CCCCCNC(=O)CCC(=O)N(O)CCCCCNC(=O)CCC(=O)N(O)CCCCCN` [desferoxamine, reference compound], for which, in series [3], the “biofilm state in flow cell after 6 h of supplementation” value is given as “formation of a robust biofilm” and the “biofilm state in flow cell after 24 h of supplementation” value is on record as “biofilm became thicker”.
As to `Cc1cccc(O)c1C1=N[C@H](C(=O)N[C@@H](CO)C(=O)N[C@H](CCCN(O)C=O)C(=O)N2NCCC[C@@H]2C(=O)NCCC(=O)O)CO1` [compound 3, Cahuitamycin C], the “pFe^III” value in series [4] stood at 17.52±0.12. The IC50 in series [1] (setting [5]) was 14.5 µM. Also, the “effect on bacterial growth” value with A. baumannii growth is given as “limited effect”. In the series on A. baumanii biofilm, the “biofilm thickness compared with the control” value is “much thinner biofilm”, the “total biomass compared with the control” value was “significantly less total biomass” and the “total biomass of biofilm” value turned out to be 0.10 μm^3.
On to `O=CN(O)CCC[C@@H](NC(=O)[C@H](CO)NC(=O)[C@H](CO)NC(=O)c1ccccc1O)C(=O)N1NCCC[C@@H]1C(=O)NCCC(=O)O` [compound 2, Cahuitamycin B], for which the “pFe^III” value in series [4] turned out to be 20.42±0.09. The “effect on biofilm formation” value in series [1] (setting [5]) is recorded as “no effects”. The “effect on bacterial growth” value in the series with A. baumannii growth is reported as “no effects”.
As to `O=CN(O)CCC[C@@H](NC(=O)[C@H](CO)NC(=O)[C@@H]1COC(c2ccccc2O)=N1)C(=O)N1NCCC[C@@H]1C(=O)NCCC(=O)O` [compound 1, Cahuitamycin A], the “pFe^III” value in series [4] was determined as 18.34±0.16. In series [1] (setting [6]), the “impact on biofilm formation, iron-complexed form” value is reported as “almost no impact”. Also, the “effect on biofilm formation” value in series [1] (setting [5]) is on record as “able to inhibit”. Besides, the “impact on growth, iron-complexed form” value in the series on A. baumannii growth (setting [6]) is on record as “almost no impact”. For the same molecule, in series [3], the “biofilm state in flow cell after 6 h of supplementation” value is “only a few micro colonies”; the “biofilm state in flow cell after 24 h of supplementation” value is “larger micro colonies and initiation of biofilm formation”. In the series with A. baumanii biofilm, the “biofilm thickness compared with the control” value was “much thinner biofilm”, the “total biomass compared with the control” value is given as “significantly less total biomass” and the “total biomass of biofilm” value came out at 0.18 μm^3.

The values above are taken from patent US10239918B2, “Cahuitamycins and methods of making and using the same” (THE REGENTS OF THE UNIVERSITY OF MICHIGAN, priority 2015, dated 2019).
